Results taken from publication PMC3432147 (Bioorganic & medicinal chemistry letters, 2012).
Values after ≈ are worked out from the molar mass of the structure shown.

How the values were obtained:
Human sEH = biological target: T1, Human sEH (Homo sapiens, UniProt P34913); assay: Inhibition of human sEH, fluorescent substrate assay; type: biochemical
T1 sequence (P34913 1-555): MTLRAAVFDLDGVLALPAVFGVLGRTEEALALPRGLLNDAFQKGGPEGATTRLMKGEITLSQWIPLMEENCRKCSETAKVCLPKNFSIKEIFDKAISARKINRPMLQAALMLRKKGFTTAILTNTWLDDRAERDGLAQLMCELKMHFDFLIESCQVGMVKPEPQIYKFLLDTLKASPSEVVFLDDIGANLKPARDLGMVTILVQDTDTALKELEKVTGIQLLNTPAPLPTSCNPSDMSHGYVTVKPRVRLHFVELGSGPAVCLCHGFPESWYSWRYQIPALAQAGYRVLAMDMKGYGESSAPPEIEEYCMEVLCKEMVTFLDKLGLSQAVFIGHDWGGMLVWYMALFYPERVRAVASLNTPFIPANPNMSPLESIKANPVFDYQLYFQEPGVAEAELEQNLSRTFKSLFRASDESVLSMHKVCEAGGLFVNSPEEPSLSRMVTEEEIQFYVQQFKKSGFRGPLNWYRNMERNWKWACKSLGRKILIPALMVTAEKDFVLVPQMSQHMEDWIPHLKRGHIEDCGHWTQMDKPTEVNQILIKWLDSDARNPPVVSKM

[1] = In vitro metabolic stability in human liver microsomes; conditions: for Stability (% remaining): human liver microsomal protein 0.125 mg, NADPH generating system, 37°C, 60 min, parent by LC-MS/MS, triplicate; for fold improved metabolic stability compared to compound 6: versus compound 6; for fold lower stability compared to compound 13: versus compound 13
Solubility in water = type: physicochemical; conditions: for fold improved water solubility compared to alkyl substituted inhibitors (4 or 6): versus compounds 4 or 6

Row | Compound | Stability (% remaining) [1] | fold improved metabolic stability compared to compound 6 ([1]; human liver microsomes) | fold lower stability compared to compound 13 ([1]; human liver microsomes) | other results
1 | CCOCCOCCOC(=O)CCCNC(=O)NC12CC3CC(CC(C3)C1)C2 [Compound 8] | 10 % remaining | > 2.5 fold | 3 fold | fold reduction in inhibition compared to compounds 4, 5 and 6 (Human sEH; versus compounds 4, 5 and 6): 7–17 fold
2 | CCCCC(C)OC(=O)CCCNC(=O)NC12CC3CC(CC(C3)C1)C2 (stereo not drawn) [Compound 5] |  |  |  | fold improvement in inhibition potency compared to compound 4 (Human sEH; versus compound 4): 2.5 fold
3 | CCCCCOC(=O)CCCNC(=O)NC12CC3CC(CC(C3)C1)C2 [Compound 4] | <1 % remaining |  |  | metabolism in human liver microsomal incubation ([1]; human liver microsomes): all metabolized to the corresponding butyric acid
4 | CCCCC(C#N)OC(=O)CCCNC(=O)NC12CC3CC(CC(C3)C1)C2 (stereo not drawn) [Compound 7] |  |  |  | fold decrease in inhibition potency in comparison with methyl (5) or ethyl (6) (Human sEH; versus compounds 5 or 6): 3 fold
5 | CCCCC(CC)OC(=O)CCCNC(=O)NC12CC3CC(CC(C3)C1)C2 (stereo not drawn) [Compound 6] | 4 % remaining |  |  | 
6 | CCOCCOCC(OC(=O)C1CCCC(NC(=O)NC23CC4CC(CC(C4)C2)C3)C1)c1ccccc1 (stereo not drawn) [Compound 13] | 32 % remaining |  |  | fold improved water solubility compared to alkyl substituted inhibitors (4 or 6) (Solubility in water): 20–45 fold; fold improved stability compared to compound 9 ([1]; human liver microsomes, versus compound 9): ~2 fold
7 | CCOCCOCC(OC(=O)CCCNC(=O)NC12CC3CC(CC(C3)C1)C2)c1ccccc1 (stereo not drawn) [Compound 9] | 14 % remaining | > 2.5 fold | ~2 fold | fold improved water solubility compared to alkyl substituted inhibitors (4 or 6) (Solubility in water): 20–45 fold
8 | CCCCC(CC)OC(=O)C1CCCC(NC(=O)NC23CC4CC(CC(C4)C2)C3)C1 (stereo not drawn) [Compound 12] | 10 % remaining | 2.5 fold | 3 fold | 
9 | O=C(NC1CCCC(C(=O)O)C1)NC12CC3CC(CC(C3)C1)C2 (stereo not drawn) [Compound 10, 3-(3-adamantan-1-yl-ureido)-cyclohexylcarboxylic acid] | 95 % remaining |  |  | parent acid determined after microsomal incubation ([1]; human liver microsomes): > 95%
10 | O=C(O)CCCNC(=O)NC12CC3CC(CC(C3)C1)C2 [Compound 3, 4-(3-adamantan-1-yl-ureido)-butyric acid] | 97 % remaining |  |  | solubility at 24 h (Solubility in water; sodium phosphate buffer, pH 7.4): 7 µg/mL (≈ 25 µM); parent acid determined after microsomal incubation ([1]; human liver microsomes): > 95%
